Converted amounts (≈) assume the structure as drawn. Where a name gives a salt, the structure may show the parent alone. Read-outs that look alike come from different tables or passages of the source.
How the values were obtained:
Format in all cases: cell-based
[1] = system: S. aureus ATCC 49951 (NB01006); assay: MIC by broth microdilution, S. aureus NB01006; settings: Staphylococcus aureus, ATCC49951, CAMHB, 35° C., 20 hours, read-out: Antibacterial activity (MIC) NB01006
Method in brief: (§1)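 CLSI broth microdilution in cation-adjusted Mueller-Hinton broth, inoculum about 5×10^5 CFU/mL from overnight MHA cultures. Two-fold compound dilutions in 1% final DMSO; plates incubated 20 h at 35° C in ambient air. MIC (μg/mL) was the lowest concentration preventing visible growth, checked by OD600 and visual inspection.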

[2] = system: S. aureus NB01006-AVR005, gyrA (S84L), grlA (580F) and grlB (E471K); assay: microbe, parasite or virus in culture; settings: Staphylococcus aureus, 20 h, read-out: Antibacterial activity (MIC) NB01006-AVR005
Method in brief: as §1

[3] = system: S. aureus NB01080 fluoroquinolone-resistant clinical isolate; assay: MIC by broth microdilution, S. aureus NB01080; settings: Staphylococcus aureus, CAMHB, 35° C., 20 hours, read-out: Antibacterial activity (MIC) NB01080
Method in brief: as §1

[4] = system: E. faecalis ATCC 29212 (NB04001); assay: MIC by broth microdilution, E. faecalis NB04001; settings: Enterococcus faecalis, ATCC29212, CAMHB, 35° C., 20 hours, read-out: Antibacterial activity (MIC) NB04001
Method in brief: as §1

[5] = system: S. pneumoniae ATCC 25922 (NB07001); assay: MIC by broth microdilution, S. pneumoniae NB07001; settings: Streptococcus pneumoniae, read-out: Antibacterial activity (MIC) NB07001
Method in brief: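 CAMHB, ~5×10^5 CFU/mL, 2-fold serial dilutions (final DMSO 1%), 35° C, ambient air, 20 h. Read OD600 plus visual check; MIC = lowest conc. with no visible growth, μg/mL.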

[6] = system: E. coli ATCC 25922 (NB27001); assay: MIC by broth microdilution, E. coli NB27001; settings: Escherichia coli, ATCC25922, CAMHB, 35° C., 20 hours, read-out: Antibacterial activity (MIC) NB27001
Method in brief: as §1

[7] = system: P. aeruginosa NB52019, wild-type PAO1 strain; assay: MIC by broth microdilution, P. aeruginosa NB52019; settings: Pseudomonas aeruginosa, CAMHB, 35° C., 20 hours, read-out: Antibacterial activity (MIC) NB52019
Method in brief: as §1

[8] = ATCC25922, S. pneumoniae, CAMHB supplemented with 5% lysed horse blood, 35° C., 20 hours

Row | Structure (SMILES) | MIC [1] | MIC [2] | MIC [3] | MIC [4] | MIC ([5]; ATCC25922, 20 h) | MIC [6] | MIC [7] | MIC [5, 8]
1 | C[C@H]1COc2c(N3CC[C@@H](C4(N)CC4)C3)c(Cl)cc3cc(C(=O)O)c(=O)n1c23 [Example 18, (S)-10-((R)-3-(1-aminocyclopropyl)pyrrolidin-1-yl)-9-chloro-3-methyl-5-oxo-2,3-dihydro-5H-[1,4]oxazino[2,3,4-ij]quinoline-6-carboxylic acid hydrochloride salt] | 1 to 32 µg/mL | > 32 µg/mL | 1 to 32 µg/mL | 1 to 32 µg/mL | < 1 µg/mL | > 32 µg/mL | > 32 µg/mL | –
2 | C[C@H]1COc2c(N3CC(CN)C4(CCC4)C3)c(F)cc3cc(C(=O)O)c(=O)n1c23 (single isomer, unassigned) [Example 1.49] | < 1 µg/mL | 1 to 32 µg/mL (≈ 2.49 to 79.7 µM) | 1 to 32 µg/mL (≈ 2.49 to 79.7 µM) | < 1 µg/mL | < 1 µg/mL | 1 to 32 µg/mL (≈ 2.49 to 79.7 µM) | 1 to 32 µg/mL (≈ 2.49 to 79.7 µM) | –
3 | C[C@H]1COc2c(N3CC4C(N)C4C3)c(F)cc3cc(C(=O)O)c(=O)n1c23 (mixture of isomers) [Example 1.38, (3S)-10-(6-amino-3-azabicyclo[3.1.0]hexan-3-yl)-9-fluoro-3-methyl-5-oxo-2,3-dihydro-5H-[1,4]oxazino[2,3,4-ij]quinoline-6-carboxylic acid] | < 1 µg/mL | > 32 µg/mL | 1 to 32 µg/mL | 1 to 32 µg/mL | 1 to 32 µg/mL | < 1 µg/mL | 1 to 32 µg/mL | –
4 | C[C@H](N)[C@@H]1CCN(c2c(F)c(F)c3cc(C(=O)O)c(=O)n4c3c2OC[C@@H]4C)C1 [Example 13.2, (S)-10-((R)-3-((S)-1-aminoethyl)pyrrolidin-1-yl)-8,9-difluoro-3-methyl-5-oxo-2,3-dihydro-5H-[1,4]oxazino[2,3,4-ij]quinoline-6-carboxylic acid] | < 1 µg/mL | < 1 µg/mL | < 1 µg/mL | < 1 µg/mL | < 1 µg/mL | < 1 µg/mL | 1 to 32 µg/mL (≈ 2.54 to 81.3 µM) | –
5 | C[C@H]1COc2c(N3CC[C@@H](C4(N)CC4)C3)c(C#N)cc3cc(C(=O)O)c(=O)n1c23 [Example 17, (S)-10-((R)-3-(1-aminocyclopropyl)pyrrolidin-1-yl)-9-cyano-3-methyl-5-oxo-2,3-dihydro-5H-[1,4]oxazino[2,3,4-ij]quinoline-6-carboxylic acid trifluoroacetate salt] | < 1 µg/mL | 1 to 32 µg/mL | 1 to 32 µg/mL | < 1 µg/mL | < 1 µg/mL | > 32 µg/mL | > 32 µg/mL | –
6 | NC1([C@@H]2CCN(c3c(F)cc4cc(C(=O)O)c(=O)n5c4c3OC[C@@H]5CO)C2)CC1.O=CO [Example 2, (S)-10-((R)-3-(1-aminocyclopropyl)pyrrolidin-1-yl)-9-fluoro-3-(hydroxymethyl)-5-oxo-2,3-dihydro-5H-[1,4]oxazino[2,3,4-ij]quinoline-6-carboxylic acid formate salt] | > 32 µg/mL | > 32 µg/mL | > 32 µg/mL | > 32 µg/mL | – | > 32 µg/mL | > 32 µg/mL | > 32 µg/mL
7 | COc1c(N2C[C@@H]3CCCN[C@@H]3C2)c(F)cc2c(=O)c(C(=O)O)cn(C3CC3)c12 [MOX, moxifloxacin, reference compound] | < 1 µg/mL | 1 to 32 µg/mL (≈ 2.49 to 79.7 µM) | > 32 µg/mL | < 1 µg/mL | < 1 µg/mL | < 1 µg/mL | 1 to 32 µg/mL (≈ 2.49 to 79.7 µM) | –
8 | CC1Cc2c(N3CC[C@@H]([C@H](C)N)C3)c(F)cc3cc(C(=O)O)c(=O)n1c23 (some centres unmarked) [Example 9.2] | < 1 µg/mL | > 32 µg/mL | 1 to 32 µg/mL (≈ 2.78 to 89 µM) | < 1 µg/mL | < 1 µg/mL | 1 to 32 µg/mL (≈ 2.78 to 89 µM) | > 32 µg/mL | –
9 | C[C@H]1COc2c(N3CC4CC4(N)C3)ccc3cc(C(=O)O)c(=O)n1c23 (stereo partly drawn) [Example 12.6, (3S)-10-(1-amino-3-azabicyclo[3.1.0]hexan-3-yl)-3-methyl-5-oxo-2,3-dihydro-5H-[1,4]oxazino[2,3,4-ij]quinoline-6-carboxylic acid] | 1 to 32 µg/mL (≈ 2.93 to 93.7 µM) | > 32 µg/mL | 1 to 32 µg/mL (≈ 2.93 to 93.7 µM) | 1 to 32 µg/mL (≈ 2.93 to 93.7 µM) | 1 to 32 µg/mL (≈ 2.93 to 93.7 µM) | 1 to 32 µg/mL (≈ 2.93 to 93.7 µM) | > 32 µg/mL | –
10 | C[C@H]1COc2c(N3CC4C(C3)C4N(C)C)c(F)cc3cc(C(=O)O)c(=O)n1c23 (mixture of isomers) [Example 1.69, (3S)-10-(6-(dimethylamino)-3-azabicyclo[3.1.0]hexan-3-yl)-9-fluoro-3-methyl-5-oxo-2,3-dihydro-5H-[1,4]oxazino[2,3,4-ij]quinoline-6-carboxylic acid] | 1 to 32 µg/mL | > 32 µg/mL | > 32 µg/mL | > 32 µg/mL | 1 to 32 µg/mL | > 32 µg/mL | > 32 µg/mL | –
11 | C[C@H]1COc2c(N3C[C@@H](CO)[C@@H](CO)C3)c(F)cc3cc(C(=O)O)c(=O)n1c23 [Example 1.79, (S)-10-((3R,4S)-3,4-bis(hydroxymethyl)pyrrolidin-1-yl)-9-fluoro-3-methyl-5-oxo-2,3-dihydro-5H-[1,4]oxazino[2,3,4-ij]quinoline-6-carboxylic acid] | 1 to 32 µg/mL (≈ 2.55 to 81.6 µM) | > 32 µg/mL | > 32 µg/mL | > 32 µg/mL | > 32 µg/mL | > 32 µg/mL | > 32 µg/mL | –
12 | Cc1c(F)c(N2CC[C@@H](C3(N)CC3)C2)c2c3c1cc(C(=O)O)c(=O)n3[C@@H](C)CO2 [Example 22, (S)-10-((R)-3-(1-aminocyclopropyl)pyrrolidin-1-yl)-9-fluoro-3,8-dimethyl-5-oxo-2,3-dihydro-5H-[1,4]oxazino[2,3,4-ij]quinoline-6-carboxylic acid] | < 1 µg/mL | 1 to 32 µg/mL (≈ 2.49 to 79.7 µM) | < 1 µg/mL | < 1 µg/mL | < 1 µg/mL | 1 to 32 µg/mL (≈ 2.49 to 79.7 µM) | > 32 µg/mL | –
13 | C[C@H]1COc2c(N3CC4CC4(CN)C3)c(F)cc3cc(C(=O)O)c(=O)n1c23 (some centres unmarked) [Example 1.18] | < 1 µg/mL | > 32 µg/mL | > 32 µg/mL | 1 to 32 µg/mL (≈ 2.68 to 85.7 µM) | 1 to 32 µg/mL (≈ 2.68 to 85.7 µM) | > 32 µg/mL | > 32 µg/mL | –
14 | C[C@H]1COc2c(N3CCC(F)(CN)C3)ccc3cc(C(=O)O)c(=O)n1c23 (stereo partly drawn) [Example 12.5, (3S)-10-(3-(aminomethyl)-3-fluoropyrrolidin-1-yl)-3-methyl-5-oxo-2,3-dihydro-5H-[1,4]oxazino[2,3,4-ij]quinoline-6-carboxylic acid] | 1 to 32 µg/mL (≈ 2.77 to 88.6 µM) | > 32 µg/mL | 1 to 32 µg/mL (≈ 2.77 to 88.6 µM) | 1 to 32 µg/mL (≈ 2.77 to 88.6 µM) | 1 to 32 µg/mL (≈ 2.77 to 88.6 µM) | 1 to 32 µg/mL (≈ 2.77 to 88.6 µM) | > 32 µg/mL | –
15 | C[C@H]1COc2c(N3CC4C(N)C4C3)c(F)c(F)c3cc(C(=O)O)c(=O)n1c23 (single isomer, unassigned) [Example 13.7] | < 1 µg/mL | 1 to 32 µg/mL (≈ 2.65 to 84.8 µM) | 1 to 32 µg/mL (≈ 2.65 to 84.8 µM) | < 1 µg/mL | < 1 µg/mL | < 1 µg/mL | 1 to 32 µg/mL (≈ 2.65 to 84.8 µM) | –
16 | C[C@H]1COc2c(N3CCC4(CC4N)C3)c(F)cc3cc(C(=O)O)c(=O)n1c23 (single isomer, unassigned) [Example 1.42] | < 1 µg/mL | 1 to 32 µg/mL (≈ 2.68 to 85.7 µM) | 1 to 32 µg/mL (≈ 2.68 to 85.7 µM) | 1 to 32 µg/mL (≈ 2.68 to 85.7 µM) | < 1 µg/mL | < 1 µg/mL | 1 to 32 µg/mL (≈ 2.68 to 85.7 µM) | –
17 | C[C@H]1COc2c(N3CC(CO)C(N(C)C)C3)c(F)cc3cc(C(=O)O)c(=O)n1c23 (single isomer, unassigned) [Example 1.78] | 1 to 32 µg/mL (≈ 2.47 to 78.9 µM) | > 32 µg/mL | > 32 µg/mL | > 32 µg/mL | 1 to 32 µg/mL (≈ 2.47 to 78.9 µM) | 1 to 32 µg/mL (≈ 2.47 to 78.9 µM) | > 32 µg/mL | –
18 | C[C@H]1COc2c(N3CC[C@@H](C4(N)CC4)C3)c(F)cc3cc(C(=O)O)c(=O)n1c23.Cl [Example 1.1, (S)-10-((R)-3-(1-aminocyclopropyl)pyrrolidin-1-yl)-9-fluoro-3-methyl-5-oxo-2,3-dihydro-5H-[1,4]oxazino[2,3,4-ij]quinoline-6-carboxylic acid hydrochloride salt] | < 1 µg/mL | 1 to 32 µg/mL | < 1 µg/mL | < 1 µg/mL | – | 1 to 32 µg/mL | > 32 µg/mL | < 1 µg/mL
19 | C[C@@H]1CN(c2c(F)cc3cc(C(=O)O)c(=O)n4c3c2OC[C@@H]4C)C[C@@]1(C)CN [Example 1.58, (S)-10-((3R,4S)-3-(aminomethyl)-3,4-dimethylpyrrolidin-1-yl)-9-fluoro-3-methyl-5-oxo-2,3-dihydro-5H-[1,4]oxazino[2,3,4-ij]quinoline-6-carboxylic acid] | < 1 µg/mL | 1 to 32 µg/mL (≈ 2.57 to 82.2 µM) | 1 to 32 µg/mL (≈ 2.57 to 82.2 µM) | 1 to 32 µg/mL (≈ 2.57 to 82.2 µM) | 1 to 32 µg/mL (≈ 2.57 to 82.2 µM) | 1 to 32 µg/mL (≈ 2.57 to 82.2 µM) | > 32 µg/mL | –
20 | C[C@H]1COc2c(N3CCNC4(CC3)CC4)c(F)cc3cc(C(=O)O)c(=O)n1c23 [Example 1.55, (S)-9-fluoro-3-methyl-5-oxo-10-(4,7-diazaspiro[2.6]nonan-7-yl)-2,3-dihydro-5H-[1,4]oxazino[2,3,4-ij]quinoline-6-carboxylic acid] | 1 to 32 µg/mL (≈ 2.58 to 82.6 µM) | > 32 µg/mL | 1 to 32 µg/mL (≈ 2.58 to 82.6 µM) | 1 to 32 µg/mL (≈ 2.58 to 82.6 µM) | 1 to 32 µg/mL (≈ 2.58 to 82.6 µM) | 1 to 32 µg/mL (≈ 2.58 to 82.6 µM) | > 32 µg/mL | –
